Results reported in US20120184548A1, “CARBOXYLIC ACID ARYL AMIDES” (priority 2011, published 2012).

What was measured:
Human DYRK1B = molecular target: T1, Human DYRK1B (Homo sapiens, UniProt Q9Y463); assay: DYRK1B Kinase TR-FRET (IMAP-Tb) Assay; format: biochemical; conditions: for IC50: TR-FRET, ATP 70 μM, 37° C. for 60 minutes, averages of multiple runs, read-out: Enzyme IC50 DYRK1B
T1 construct: purchased Invitrogen PR8350B (former PV4649)
Text: The kinase TR-FRET (IMAP-Tb) assay uses a fluorescence labeled substrate peptide in the kinase reaction. Upon phosphorylation by the kinase, phosphopeptide is produced, which will be detected by the binding solution provided in IMAP TR-FRET binding kit. After the completion of the kinase reaction, the reaction will be stopped by adding the binding solution containing terbium tracer. This tracer is immobilized on the surface of the IMAP beads, which also contain metal ions on the beads that bind to the phospho-groups of the products. Thus the phosphorylated product of the reaction can enter into close proximity to the tracer, producing resonance energy transfer. Due to the long lifetime of terbium (Tb) fluorescence the detection can be run in time resolved mode, which virtually eliminates fluorescence interference from assay components or compounds. […] IC50 is the amount of test compound that inhibits 50% of the activity of DYRK1B in this assay. […] 1. Human DYRK1B: from Invitrogen. Part # PR8350B (former PV4649) 2. Substrate Peptide: RRRFRPASPLRGPPK 3. IMAP TR-FRET IPP Explorer Kit: from Molecular Devices. Part # R8157 4. Kinase Assay Buffer (KAB): 10 mM HEPES pH 7.0, 50 mM NaCl, 5 mM MgCl2, 1 mM DTT, 1 mM NaVO4, 200 μg/mL BSA (0.02%) 5. Assay Plate: Remp polypropylene clear 384-well microplate. Cat#23490-102 6. Detection Plate: Costa black 384-well microplate. Cat #3710 Assay Procedure: This assay was performed as follows: 1. Transfer 1.5 μL of 20× compound solution to each well of an assay plate. 2. Add to each well 22.5 μL of KAB Buffer. 3. Add to each well 3 μL of the solution of DYRK1B and ATP. […] Add to each well 3 μL of the substrate peptide. […] Incubate the assay plates at 37° C. for 60 minutes. 6. Add 18 μL of Detection Solution (1:800 diluted Progress bead stock, 1:400 diluted Tb stock, 80% Buffer A, and 20% Buffer B) into each well of detection plates. 7. Transfer 6 μL of assay solution from the assay plate to the detection plate. 8. Shake detection plates for 30 minutes. 9. Read plates in Envision with wavelength set at excitation 340 nm for Tb, emission 490 nm, and […]. 10. Calculation: TR-FRET Signal=(Reading at […])×2000000

[1] = test system: SW620 human colon cancer cells; assay: SW620 Cell Viability Assay (CellTiter-Glo); format: cell-based; conditions: SW-620, 96 h, 4 days incubation, read-out: Cellular EC50 SW620
Experimental: 1. Cell Plate Preparation: SW620 human colon cancer cells (known to express DYRK1B), obtained from ATCC, were seeded into 96-well plates at […] in 50 μL of media. • Harvested the required number of cells (counts & viability determined by Guava Viacount). • Centrifuge cells to pellet and removed supernant. • Resuspended in growth media (50 μL/well) & pipetted thoroughly to break up clumps. • Setup for ˜100 wells/plate, therefore, VT=5 mL/plate @ 1.2×10^5 cells/mL. 1A. Some cells (S-) were allowed to attach for 24 hrs, serum starved for 48 hrs, and then followed with treatments of test compound.
Test Compound solution was prepared in regular corresponding media supplemented with serum
2. Test Compound Preparation: Test compounds were solubilized in either DMSO or media and prepared at various stock concentrations. • All compounds were incubated at 37° C. for 30 minutes and vortexed. • (5 mM stocks of test compound were prepared for non-soluble drugs)
3. Test Compound Plate Preparation:
• The 10 mM test compound stock was diluted to a concentration of 100× the final Cmax concentration. • Then the test compound stock is diluted 50-fold in media and/or second test compound for a final Cmax concentration in the test compound plate. • The Cmax in the test compound plate (2% DMSO) is 2-fold higher than the final Cmax in the cell plate (60 uL titrations were 1:3). 4. Viability Assay: This assay was performed as follows: • Transfer 50 μL of test compound solution per well from the test compound plate onto the cell plate prepared in Step #1. • Mix the plate with treated cells by pipetting up and down three times with 200 μL multi-channel pipet. • Incubate the cells in 5% CO2 incubator @ 37° C. for 4 days. • Run the CellTiter-Glo™ Luminescent Cell Viability Assay. The results of this assay, given as EC50 values, indicate the concentration of test compound that inhibits tumor cell proliferation by 50%.

Human DYRK1A = molecular target: T2, Human DYRK1A (Homo sapiens, UniProt Q13627); assay: DYRK1A Kinase TR-FRET (IMAP-Tb) Assay; format: biochemical; conditions: for IC50: TR-FRET, ATP 70 μM, 37° C. for 60 minutes, averages of multiple runs, read-out: Enzyme IC50 DYRK1A
T2 construct: purchased Invitrogen PV3997
Text: The kinase TR-FRET (IMAP-Tb) assay uses a fluorescence labeled substrate peptide in the kinase reaction. Upon phosphorylation by the kinase, phosphopeptide is produced, which will be detected by the binding solution provided in IMAP TR-FRET binding kit. After the completion of the kinase reaction, the reaction will be stopped by adding the binding solution containing terbium tracer. This tracer is immobilized on the surface of the IMAP beads, which also contain metal ions on the beads that bind to the phospho-groups of the products. Thus the phosphorylated product of the reaction can enter into close proximity to the tracer, producing resonance energy transfer. Due to the long lifetime of terbium (Tb) fluorescence the detection can be run in time resolved mode, which virtually eliminates fluorescence interference from assay components or compounds.
The TR-FRET signal measurement from this assay, given as an IC50 measurement, is a measure of a test compound's ability to interfere with the phosphorylation of the peptide substrate, that is it inhibits the phosphorylation of the substrate peptide by DYRK1A, and is thus a measure of the test compound's ability to inhibit the activity of DYRK1A.
1. Human DYRK1A: from Invitrogen. Part # PV3997
2. Substrate Peptide: […]
3. IMAP TR-FRET IPP Explorer Kit: from Molecular Devices. Part # R8157 4. Kinase Assay Buffer (KAB): 10 mM HEPES pH 7.0, 50 mM NaCl, 5 mM MgCl2, 1 mM DTT, 1 mM NaVO4, 200 μg/mL BSA (0.02%) 5. Assay Plate: Remp polypropylene clear 384-well microplate. […] Detection Plate: Costa black 384-well microplate. […] Transfer 1.5 μL of 20× compound solution to each well of an assay plate. 2. Add to each well 22.5 μL of KAB Buffer. 3. Add to each well 3 μL of the solution of DYRK1A and ATP. […] Add to each well 3 μL of the substrate peptide. The assay concentration is 1.0 μM 5. Incubate the assay plates at 37° C. for 60 minutes. 6. Add 18 μL of Detection Solution (1:800 diluted Progress bead stock, 1:400 diluted Tb stock, 80% Buffer A, and 20% Buffer B) into each well of detection plates. 7. Transfer 6 μL of assay solution from the assay plate to the detection plate. 8. Shake detection plates for 30 minutes. 9. Read plates in Envision with wavelength set at excitation 340 nm for Tb, emission 490 nm, and […].

T1 sequence (Q9Y463 whole entry): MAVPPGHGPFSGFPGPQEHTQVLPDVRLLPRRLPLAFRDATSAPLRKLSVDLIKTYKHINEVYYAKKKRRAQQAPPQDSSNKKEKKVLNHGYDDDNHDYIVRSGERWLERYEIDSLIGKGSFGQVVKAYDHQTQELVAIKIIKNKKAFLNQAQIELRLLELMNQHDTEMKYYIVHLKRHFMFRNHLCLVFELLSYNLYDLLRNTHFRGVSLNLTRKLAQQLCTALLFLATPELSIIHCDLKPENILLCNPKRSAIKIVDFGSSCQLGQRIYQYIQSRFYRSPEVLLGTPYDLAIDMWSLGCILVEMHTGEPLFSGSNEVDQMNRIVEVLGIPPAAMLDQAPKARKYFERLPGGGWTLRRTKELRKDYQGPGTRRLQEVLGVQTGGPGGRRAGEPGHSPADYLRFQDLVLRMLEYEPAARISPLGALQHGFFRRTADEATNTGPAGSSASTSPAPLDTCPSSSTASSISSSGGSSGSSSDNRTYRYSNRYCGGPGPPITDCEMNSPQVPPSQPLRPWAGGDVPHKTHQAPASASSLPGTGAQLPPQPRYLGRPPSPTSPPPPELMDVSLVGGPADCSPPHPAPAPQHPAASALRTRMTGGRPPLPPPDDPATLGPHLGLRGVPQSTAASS

SMILES	IC50 (Human DYRK1B) [nM]	EC50 [1] [nM]	IC50 (Human DYRK1A) [nM]	inhibition at 10 µM (Human DYRK1B; 10 μM test compound, reported where IC50 was not determined, read-out: Enzyme DYRK1B % inhibition at 10 μM test compound concentration) [%]	inhibition at 10 µM (Human DYRK1A; 10 μM test compound, reported where IC50 was not determined, read-out: Enzyme DYRK1A % inhibition at 10 μM test compound concentration) [%]
COc1cc2cc(C(=O)Nc3cc(C(=O)NC(CN)c4cccc(Cl)c4)ccc3C)c(=O)[nH]c2cc1OC (stereo not drawn) [Example 50, 6,7-Dimethoxy-2-oxo-1,2-dihydro-quinoline-3-carboxylic acid {5-[2-amino-1-(3-chloro-phenyl)-ethylcarbamoyl]-2-methyl-phenyl}-amide]	73.2	1130			
COCCOc1cc2cc(C(=O)Nc3cc(C(=O)OC)ccc3C)c(=O)[nH]c2cc1OC [Example 23, 3-{[7-Methoxy-6-(2-methoxy-ethoxy)-2-oxo-1,2-dihydro-quinoline-3-carbonyl]-amino}-4-methyl-benzoic acid methyl ester]	440	> 10000	262		
COC(=O)c1ccc(C)c(NC(=O)c2cc3cc(OC)c(OC)cc3[nH]c2=O)c1 [Example 17, 3-[(6,7-Dimethoxy-2-oxo-1,2-dihydro-quinoline-3-carbonyl)-amino]-4-methyl-benzoic acid methyl ester]	560	> 10000			
COCCOc1cc2cc(C(=O)Nc3cc(C(=O)NCc4cccc(Cl)c4)ccc3Cl)c(=O)[nH]c2cc1OC [Example 55, N-(2-Chloro-5-(3-chlorobenzylcarbamoyl)phenyl)-7-methoxy-6-(2-methoxyethoxy)-2-oxo-1,2-dihydroquinoline-3-carboxamide]	37.3	129	48.9		
COCCOc1cc2cc(C(=O)Nc3cc(C(=O)NC(CN)c4cccc(Cl)c4)ccc3Cl)c(=O)[nH]c2cc1OC (stereo not drawn) [Example 60, N-(5-(2-Amino-1-(3-chlorophenyl)ethylcarbamoyl)-2-chlorophenyl)-7-methoxy-6-(2-methoxyethoxy)-2-oxo-1,2-dihydroquinoline-3-carboxamide]	21.7	200	14.3		
COC(=O)c1ccc(C)c(NC(=O)c2cc3cc(OCCN4CCOCC4)c(OC)cc3[nH]c2=O)c1 [Example 39, 3-{[7-Methoxy-6-(2-morpholin-4-yl-ethoxy)-2-oxo-1,2-dihydro-quinoline-3-carbonyl]-amino}-4-methyl-benzoic acid methyl ester]	190	3410	150		
COCCOc1cc2cc(C(=O)Nc3cc(C(=O)NC(CCN)c4ccccc4)ccc3C)c(=O)[nH]c2cc1OC (stereo not drawn) [Example 38, 7-Methoxy-6-(2-methoxy-ethoxy)-2-oxo-1,2-dihydro-quinoline-3-carboxylic acid [5-(3-amino-1-phenyl-propylcarbamoyl)-2-methyl-phenyl]-amide]	44.8	2760	34.7		
COc1cc2cc(C(=O)Nc3cc(C(=O)NC(CN)c4ccccc4)ccc3C)c(=O)[nH]c2cc1OC (stereo not drawn) [Example 31, 6,7-Dimethoxy-2-oxo-1,2-dihydro-quinoline-3-carboxylic acid [5-(2-amino-1-phenyl-ethylcarbamoyl)-2-methyl-phenyl]-amide]	141	1920			
COc1cc2cc(C(=O)Nc3cc(C(=O)NC(CO)C(C)C)ccc3C)c(=O)[nH]c2cc1OC (stereo not drawn) [Example 33, 6,7-Dimethoxy-2-oxo-1,2-dihydro-quinoline-3-carboxylic acid [5-(1-hydroxymethyl-2-methyl-propylcarbamoyl)-2-methyl-phenyl]-amide]				36	36
COC(=O)c1ccc(C)c(NC(=O)C2Cc3cc(OC)c(OC)cc3NC2=O)c1 (stereo not drawn) [Example 72, 3-[(6,7-Dimethoxy-2-oxo-1,2,3,4-tetrahydro-quinoline-3-carbonyl)-amino]-4-methyl-benzoic acid methyl ester]	1800		5590		
COc1cc2cc(C(=O)Nc3ccncc3C)c(=O)[nH]c2cc1OC [Example 21, 6,7-Dimethoxy-2-oxo-1,2-dihydro-quinoline-3-carboxylic acid (3-methyl-pyridin-4-yl)-amide]	5480		> 10000		
COCCOCCOc1cc2cc(C(=O)Nc3cc(C(=O)NCc4cccc(Cl)c4)ccc3C)c(=O)[nH]c2cc1OC [Example 70, 7-Methoxy-6-[2-(2-methoxy-ethoxy)-ethoxy]-2-oxo-1,2-dihydro-quinoline-3-carboxylic acid [5-(3-chloro-benzylcarbamoyl)-2-methyl-phenyl]-amide]	1690		67		
COCCOc1cc2cc(C(=O)Nc3cc(-c4nnn[nH]4)ccc3C)c(=O)[nH]c2cc1OC [Example 24, 7-Methoxy-6-(2-methoxy-ethoxy)-2-oxo-1,2-dihydro-quinoline-3-carboxylic acid [2-methyl-5-(1H-tetrazol-5-yl)-phenyl]-amide]	2670		1760		
COCCOc1cc2[nH]c(=O)c(C(=O)Nc3cc(C(=O)OC)ccc3C)cc2cc1OC [Example 26, 3-{[6-Methoxy-7-(2-methoxy-ethoxy)-2-oxo-1,2-dihydro-quinoline-3-carbonyl]-amino}-4-methyl-benzoic acid methyl ester]	6420		5140		
